From US20140094465A1, “Compounds as S-Nitrosoglutathione Reductase Inhibitors” (N30 PHARMACEUTICALS, INC., priority 2011, published 2014)
One block for each compound: values may come before it.

Legend:
[1] = biological target: T1, S-nitrosoglutathione reductase (GSNOR) (Homo sapiens, UniProt P11766); assay: GSNOR assay (inhibition of GSNOR activity, NADH absorbance at 340 nm); assay type: biochemical; conditions: GSNOR inhibitor activity, Tables 1-6; read-out: IC50 range
T1 construct: made in house; host or cells: E. coli
Outline: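 Recombinant GSNOR purified from E. coli, tag removed. Final conditions: 100 mM NaPO4 pH 7.4, 0.240 mM GSNO, 0.300 mM NADH, 0.5 μg/mL enzyme, 1% DMSO; NADH loss followed as 340 nm absorbance change over 3 min at 25 °C. Compounds 100–0.003 μM, triplicate; IC50 by curve analysis.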

[2] = Mouse pharmacokinetic (PK) study; assay type: in vivo; conditions: male, BALB/c, plasma, po, 10 mg/kg, male BALB/c mice, 2 mg/kg IV, 10 mg/kg PO, read-out: oral bioavailability (% F)
Source text: The mouse was used to determine the pharmacokinetics of compounds of the invention. This species is widely used to assess the bioavailability of compounds by administering both oral (PO) and intravenous (IV) test articles. Efficacy of the compounds of the invention was compared by assessing plasma exposure in male BALB/c mice either via IV or PO administration at the times of peak activity.
Compounds of the invention were reconstituted in a phosphate buffered saline (PBS)/10% Solutol (HS 15) clear solution resulting in a concentration of 0.2 mg/mL and administered to mice (2 mg/kg) as a single IV dose. Animals were dosed via the lateral tail vein. Blood samples were collected at designated time points (0.083, 0.25, 0.5, 1, 2, 4, 8, 16, 24 hours) by cardiac puncture under isoflurane anesthesia (up to 1 mL blood per animal). The blood was collected into tubes containing Li-Heparin. The blood samples were kept on ice until centrifugation within approximately 30 minutes of collection. The plasma was transferred into labeled polypropylene tubes and frozen at −70° C. until analyzed by LC/MS/MS.
The compounds of the invention were reconstituted in 40% Propylene Glycol/40% Propylene Carbonate/20% of a 5% Sucrose clear solution resulting in a concentration of 2 mg/mL and administered to mice (10 mg/kg) as a single oral dose via gavage. Blood samples were collected at 0.25, 0.5, 1, 2, 4, 8, 12, 16, 20 and 24 hours post dose by cardiac puncture under isoflurane anesthesia. The blood was collected in tubes containing Li-Heparin. The blood samples were kept on ice until centrifugation within approximately 30 minutes of collection. The plasma was transferred into labeled polypropylene tubes and frozen at −70° C. until analyzed by LC/MS/MS.
Plasma samples at each timepoint were analyzed using a LC-MS/MS with a lower limit of quantification (LLOQ) of 1 ng/mL. Plasma was analyzed to determine the amount of the compound of the invention in each sample and regression curves generated for each compounds of the invention in the relevant matrixes.
WinNonlin analysis was used for calculating PK parameters for both the IV and PO administrations:
PK parameters for IV portion—AUClast; AUCINF; T1/2; Cl; Vss; Cmax; MRT
PK parameters for PO portion—AUClast; AUCINF; T1/2; Cmax; Cl, MRT.
In addition to the above PK parameters, bioavailability (% F) was calculated.

[3] = tested on: dextran sodium sulfate (DSS)-induced IBD; assay: Acute prophylactic model of DSS-induced IBD; assay type: in vivo, mouse; conditions: prophylactic
Source text: (§1) Acute and chronic models of dextran sodium sulfate (DSS)-induced IBD in mice were used to explore efficacy of GSNORi against this disease. Acute and chronic DSS-induced IBD are widely used and well characterized models that induce pathological changes in the colon similar to those observed in the human disease. In these models and in human disease, epithelial cells within the crypts of the colon are disrupted, leading to dysfunction of the epithelial barrier and the ensuing tissue inflammation, edema, and ulceration. GSNORi therapy may benefit IBD by restoring s-nitrosoglutathione (GSNO) levels, and thus prevent or reverse the epithelial barrier dysfunction. Experimental IBD was induced by administration of DSS in the drinking water of male C57Bl/6 mice (N=8 to 10 mice per group) for 6 consecutive days. GSNORi was dosed orally at doses of 0.1 to 10 mg/kg/day for 10 days starting two days prior to and continuing two days post DSS exposure. […] Levels of circulating cytokines involved in inflammatory pathways were also assessed. The effect of GSNORi was compared to vehicle treated controls. […] Naïve mice (N=5) were also assessed as a normal tissue control.

[4] = tested on: cigarette smoke-induced COPD; assay: Subchronic (11 day) cigarette smoke exposure COPD model; assay type: in vivo, mouse; conditions: for effects compared with roflumilast / inhibition of smoke-induced increase in lymphocytes in BAL / inhibition of smoke-induced increase in macrophages in BAL / inhibition of smoke-induced increase in neutrophils in BAL / inhibition of smoke-induced increase in total cells in BAL: subchronic 11 day model; for effects compared with roflumilast: roflumilast 5 mg/kg/day; for inhibition of smoke-induced increase in lymphocytes in BAL / inhibition of smoke-induced increase in macrophages in BAL / inhibition of smoke-induced increase in neutrophils in BAL / inhibition of smoke-induced increase in total cells in BAL: oral 1 mg/kg/day for 11 days
Method: Infiltration of inflammatory cells into the bronchoalveolar lavage fluid (BALF) and BALF levels of chemokines involved in inflammation and tissue turnover/repair were measured to assess the influences of GSNOR inhibitors on some of the early events associated with the initiation and progression of COPD. […] In animal models, changes in lung pathology are only evident after extended (several months) duration of exposure to cigarette smoke, thus making chronic models prohibitive as effective screening tools. […] The key roles of inflammation in the initiation and progression of COPD, make these short duration models relevant for initial tests of efficacy of novel therapeutics. Female C57Bl/6 mice (N=10 per group) were exposed to cigarette smoke generated from Marlboro 100 cigarettes without filters. Exposure times were 25 min. on study day 1, 35 min. on study day 2, and 45 min. on study days 3 to 11. GSNOR inhibitors were administered one hour prior to smoke exposure on each day. GSNOR inhibitors were dosed orally at 1 to 10 mg/kg/day for 11 days. […] The effect of GSNOR inhibitors were compared to vehicle treated controls and expressed as percent inhibition of the cigarette smoke induced increases in BALF cell numbers. Roflumilast was used as the positive control for the study and was dosed at 5 mg/kg/day. A group of naïve mice (N=10) was exposed to air and dosed with vehicle as a negative control for the study.

[5] = tested on: dextran sodium sulfate (DSS)-induced IBD; assay: Chronic treatment model of DSS-induced IBD; assay type: in vivo, mouse; conditions: oral 10 mg/kg/day for up to 14 days, treatment regimen
Source text: as §1, with “mice (N=10” for “mice (N=8”, “to 12” for “to 10”, “of” for “of 0.1 to”, “for 14” for “for 10”, “starting one day after cessation of” for “starting two days prior to and continuing two days post”

[6] = tested on: ovalbumin (OVA)-induced asthma; assay: Mouse model of ovalbumin (OVA)-induced asthma (Penh, eosinophil infiltrate in BALF); assay type: in vivo; conditions: three oral doses of 10 mg/kg at 48 h, 24 h, and 1 h prior to assessment
Method: A mouse model of ovalbumin (OVA)-induced asthma was used to screen GSNOR inhibitors for efficacy against methacholine (MCh)-induced bronchoconstriction/airway hyper-responsiveness. This is a widely used and well characterized model that presents with an acute, allergic asthma phenotype with similarities to human asthma. Efficacy of GSNOR inhibitors was assessed using a protocol in which GSNOR inhibitors were administered after OVA sensitization and airway challenge, and prior to challenge with MCh. Bronchoconstriction in response to challenge with increasing doses of MCh was assessed using whole body plethysmography (Penh; Buxco). The amount of eosinophil infiltrate into the bronchoaveolar lavage fluid (BALF) was also determined as a measure of lung inflammation. The effects of GSNOR inhibitors were compared to vehicles and to Combivent (inhaled; IH) as the positive control.
OVA (500 μg/ml) in PBS was mixed with equal volumes of 10% (w/v) aluminum potassium sulfate in distilled water and incubated for 60 min. at room temperature after adjustment to pH 6.5 using 10 N NaOH. After centrifugation at 750×g for 5 min, the OVA/alum pellet was resuspended to the original volume in distilled water. Mice received an intraperitoneal (IP) injection of 100 μg OVA (0.2 mL of 500 μg/mL in normal saline) complexed with alum on day 0. Mice were anesthetized by IP injection of a 0.2-mL mixture of ketamine and xylazine (0.44 and 6.3 mg/mL, respectively) in normal saline and were placed on a board in the supine position. Two hundred fifty micrograms (100 μl of a 2.5 mg/ml) of OVA (on day 8) and 125 μg (50 μl of 2.5 mg/ml) OVA (on days 15, 18, and 21) were placed on the back of the tongue of each animal.
In vivo airway responsiveness to methacholine was measured 24 h after the last OVA challenge in conscious, freely moving, spontaneously breathing mice with whole body plethysmography using a Buxco chamber (Wilmington, N.C.). Mice were challenged with aerosolized saline or increasing doses of methacholine (5, 20, and 50 mg/mL) generated by an ultrasonic nebulizer for 2 min. The degree of bronchoconstriction was expressed as enhanced pause (Penh), a calculated dimensionless value, which correlates with the measurement of airway resistance, impedance, and intrapleural pressure in the same mouse. Penh readings were taken and averaged for 4 min. after each nebulization challenge. Penh is calculated as follows: Penh=[(Te/Tr−1)×(PEF/PIF)], where Te is expiration time, Tr is relaxation time, PEF is peak expiratory flow, and PIF is peak inspiratory flow×0.67 coefficient. The time for the box pressure to change from a maximum to a user-defined percentage of the maximum represents the relaxation time. The Tr measurement begins at the maximum box pressure and ends at 40%.
After measurement of airway hyper-reactivity, the mice were exsanguinated by cardiac puncture, and then BALF was collected from either both lungs or from the right lung after tying off the left lung at the mainstem bronchus. Total BALF cells were counted from a 0.05 mL aliquot, and the remaining fluid was centrifuged at 200×g for 10 min at 4° C. Cell pellets were resuspended in saline containing 10% BSA with smears made on glass slides. Eosinophils were stained for 5 min. with 0.05% aqueous eosin and 5% acetone in distilled water, rinsed with distilled water, and counterstained with 0.07% methylene blue. Alternatively, eosinophils and other leukocytes were stained with DiffQuik.
GSNOR inhibitors were reconstituted in phosphate buffered saline (PBS), pH 7.4, or 0.5% w/v carboxy methylcellulose at concentrations ranging from 0.00005 to 3 mg/mL. GSNOR inhibitors were administered to mice (10 mL/kg) as a single dose or multiple dose either intravenously (IV) or orally via gavage. Dosing was performed from 30 min. to 72 h prior to MCh challenge. Effects of GSNOR inhibitors were compared to vehicle dosed in the same manner.
Combivent was used as the positive control in all studies. […]

T1 sequence (P11766 whole entry): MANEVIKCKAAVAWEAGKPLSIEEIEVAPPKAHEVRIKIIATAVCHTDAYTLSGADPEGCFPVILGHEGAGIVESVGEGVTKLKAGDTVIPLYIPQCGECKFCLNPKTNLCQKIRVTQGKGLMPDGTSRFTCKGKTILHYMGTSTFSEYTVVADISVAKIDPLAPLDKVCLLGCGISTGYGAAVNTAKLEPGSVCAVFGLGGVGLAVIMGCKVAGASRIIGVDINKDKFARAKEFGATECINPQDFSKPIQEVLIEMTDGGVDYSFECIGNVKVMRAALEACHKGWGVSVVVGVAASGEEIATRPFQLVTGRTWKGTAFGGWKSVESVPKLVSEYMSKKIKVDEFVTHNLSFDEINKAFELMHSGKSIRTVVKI

IC50 [1]: < 100 nM
bioavailability [2]: > 9%
Compound: O=C(O)c1ccc(-c2nc3ccc(O)cc3cc2Cl)c(F)c1 [Compound I-28]

Compound: O=C(O)c1ccc(-c2ccc3cc(O)ccc3n2)c(Cl)c1 [Compound I-8, 3-chloro-4-(6-hydroxyquinolin-2-yl)benzoic acid]
decrease of percent of mice with severe colon injury scores via endoscopy ([3]; oral 10 mg/kg/day for 10 days): 44 % of vehicle control
decrease of percent of mice with severe colon injury scores via histopathology ([3]; oral 10 mg/kg/day for 10 days): 26 % of vehicle control
dose response of effect ([4]; subchronic 11 day model, 1, 5, or 10 mg/kg/day): no dose response of effect
effects compared with roflumilast [4]: comparable to those of roflumilast
IC50 [1]: < 100 nM

IC50 [1]: < 100 nM
bioavailability [2]: > 9%
Compound: Oc1ccc2nc(-c3ccc(-c4nnn[nH]4)cc3)ccc2c1 [Compound I-4]

Compound: O=C(O)c1ccc(-c2ccc3cc(O)ccc3c2)c(Cl)c1 [III-1]
decrease of percent of mice with severe colon injury scores via endoscopy ([3]; oral 1 mg/kg/day for 10 days): 17 % of vehicle control
decrease of percent of mice with severe colon injury scores via histopathology ([3]; oral 1 mg/kg/day for 10 days): 21 % of vehicle control
effects compared with roflumilast [4]: comparable to those of roflumilast
IC50 [1]: < 100 nM
decrease of percent of mice with severe colon injury scores via endoscopy [5]: 50 % of vehicle control
decrease of percent of mice with severe colon injury scores via histopathology [5]: 17 % of vehicle control

IC50 [1]: < 100 nM
bioavailability [2]: > 9%
Compound: O=C(O)c1ccc(-c2nc3ccc(O)cc3cc2Cl)cc1 [Compound I-19]

IC50 [1]: < 100 nM
Compound: O=C(O)c1ccc(-c2ccc3cc(O)ccc3n2)c(F)c1 [Compound I-13]
inhibition of smoke-induced increase in lymphocytes in BAL [4]: 60%
inhibition of smoke-induced increase in macrophages in BAL [4]: 53%
inhibition of smoke-induced increase in neutrophils in BAL [4]: 67%
inhibition of smoke-induced increase in total cells in BAL [4]: 56%
effects compared with roflumilast [4]: comparable to those of roflumilast
decrease of percent of mice with severe colon injury scores via endoscopy [5]: 52 % of vehicle control
decrease of percent of mice with severe colon injury scores via histopathology [5]: 53 % of vehicle control

IC50 [1]: < 100 nM
Compound: Cc1cc(C(=O)O)ccc1-c1ccc2cc(O)ccc2n1 [Compound I-27]
decrease of eosinophil infiltration in BAL [6]: 23 % of vehicle control
inhibition of smoke-induced increase in lymphocytes in BAL [4]: 46%
inhibition of smoke-induced increase in macrophages in BAL [4]: 41%
inhibition of smoke-induced increase in neutrophils in BAL [4]: 64%
inhibition of smoke-induced increase in total cells in BAL [4]: 44%
effects compared with roflumilast [4]: comparable to those of roflumilast
